Data reported in patent US4639509A, “[16,19-Di-alanine] calcitonin” (Armour Pharmaceutical Company, priority 1985, dated 1987).
Bridge positions count the residues as written; N and C are the ends. Peptide text beside a SMILES is read from it.

Key:
[1] = literature values; cited from earlier work
[2] = tested on: serum calcium concentration
Protocol: Rats were divided into four groups of seven animals, and each group was assigned at random to a dose of standard or test solution. Low and high doses were chosen from the linear portion of the dose-responsive curve. For the salmon calcitonin standard, the values were 0.7 and 2.1 mcg. peptide/100 g. body weight (BW). This dose approximates 3 and 9 MU/100 g. BW. Peptides were given by subcutaneous injection (0.2 ml/100 g. BW) and blood was withdrawn 1 hour later for serum calcium determination. Sera are processed and analyzed within two hours of collection. Results were analyzed within two hours of collection.

In the case of “(1,7-α-L-amino-suberic acid)eel calcitonin”, the hypocalcemic potency [1] is listed as “about 3400 Iu/mg”.

`CC(C)C[C@H](NC(=O)[C@H](CCCCN)NC(=O)CNC(=O)[C@H](CC(C)C)NC(=O)[C@@H](NC(=O)[C@@H]1CSSC[C@H](N)C(=O)N[C@@H](CO)C(=O)N[C@@H](CC(N)=O)C(=O)N[C@@H](CC(C)C)C(=O)N[C@@H](CO)C(=O)N[C@@H]([C@@H](C)O)C(=O)N1)C(C)C)C(=O)N[C@@H](CO)C(=O)N[C@@H](CCC(N)=O)C(=O)N[C@@H](CCC(=O)O)C(=O)N[C@@H](C)C(=O)N[C@@H](Cc1c[nH]cn1)C(=O)N[C@@H](CCCCN)C(=O)N[C@@H](C)C(=O)N[C@@H](CCC(N)=O)C(=O)N[C@H](C(=O)N[C@@H](Cc1ccc(O)cc1)C(=O)N1CCC[C@H]1C(=O)N[C@@H](CCCNC(=N)N)C(=O)N[C@H](C(=O)N[C@@H](CC(N)=O)C(=O)N[C@H](C(=O)NCC(=O)N[C@@H](CO)C(=O)NCC(=O)N[C@H](C(=O)N1CCC[C@H]1C(N)=O)[C@@H](C)O)[C@@H](C)O)[C@@H](C)O)[C@@H](C)O` [[Di-Ala^16,19]SCT, [16,19-Di-Alanine]salmon calcitonin] (H-CSNLSTCVLGKLSQEAHKAQTYPRTNTGSGTP-NH2; disulfide 1-7) showed a biological potency ([2]; rat, in vivo, sc) of 7200 IU/mg.

For `CC(C)C[C@H](NC(=O)[C@H](CCCCN)NC(=O)CNC(=O)[C@H](CC(C)C)NC(=O)[C@@H](NC(=O)[C@@H]1CSSC[C@H](N)C(=O)N[C@@H](CO)C(=O)N[C@@H](CC(N)=O)C(=O)N[C@@H](CC(C)C)C(=O)N[C@@H](CO)C(=O)N[C@@H]([C@@H](C)O)C(=O)N1)C(C)C)C(=O)N[C@@H](CO)C(=O)N[C@@H](CCC(N)=O)C(=O)N[C@@H](CCC(=O)O)C(=O)N[C@@H](CC(C)C)C(=O)N[C@@H](Cc1c[nH]cn1)C(=O)N[C@@H](CCCCN)C(=O)N[C@@H](CC(C)C)C(=O)N[C@@H](CCC(N)=O)C(=O)N[C@H](C(=O)N[C@@H](Cc1ccc(O)cc1)C(=O)N1CCC[C@H]1C(=O)N[C@@H](CCCNC(=N)N)C(=O)N[C@H](C(=O)N[C@@H](CC(N)=O)C(=O)N[C@H](C(=O)NCC(=O)N[C@@H](CO)C(=O)NCC(=O)N[C@H](C(=O)N1CCC[C@H]1C(N)=O)[C@@H](C)O)[C@@H](C)O)[C@@H](C)O)[C@@H](C)O` [standard salmon calcitonin, Salmon calcitonin], the “potency content of the standard” value ([2]; standard used in the assay, independently determined) was “greater than 4,000 IU/mg”.
